The test system of test [1] is APPswe/PS1∆E9-transgenic mice. The arrangement: method as in PMID 23785163. Particulars: fed to APPswe/PS1∆E9-transgenic mice, preventive paradigm; cited from earlier work.
The test system of test [2] is very old transgenic AD mice. The arrangement: method as in PMID 23673233. The following applies: fed to very old transgenic AD mice; cited from earlier work.
The test system of test [3] is HT22 cells expressing the brain-derived neurotrophic factor (BDNF) receptor transmembrane receptor kinase B. Put plainly: BDNF-like activity (rescue from serum starvation). Particulars: Mus musculus, HT-22, read-out: Half-maximal effective concentration, BDNF-like activity. In kind it is cell-based. Here is the method: (§1) The various phenotypic screening assays were conducted as previously described. Briefly, HT-22, primary cortical neurons, or MC65 was plated and exposed to the different environmental stresses. Cells were treated with varying concentrations of CAD-31, and half-maximal effective concentration (EC50) was determined on the basis of cell viability.
(§2) • An assay that mimics the dramatic loss of neurotrophic support in the old brain is the trophic factor withdrawal assay. Primary embryonic day 18 cortical cells are plated at low density in serum-free medium. At low density, the cells die within 2 days; they can be rescued by combinations of neurotrophic growth factors, but not by one alone ([19] and unpublished data). […] BDNF is a molecule that is also involved in promoting memory and neurogenesis and is reduced in the brain with age and in AD, as well as in other neurological disorders. BDNF has long been considered a drug target for AD [23]. […] A reduction in GSH is a common denominator of old age and essentially all chronic central nervous system (CNS) diseases. J147 and CAD-31 both effectively reduce oxidative stress, with EC50 of 6 nM and 20 nM, respectively. • CAD-31 also prevents loss of energy metabolism that leads to neuron cell death in an in vitro ischemia model. […]

Another test concerns MC65. Put plainly: Aβ toxicity (intracellular). The following applies: Homo sapiens, MC65, MC65; read-out: Half-maximal effective concentration, Aβ toxicity (intracellular). The format is cell-based, human. Here is the method:
as §1
• An assay that mimics the dramatic loss of neurotrophic support in the old brain is the trophic factor withdrawal assay. Primary embryonic day 18 cortical cells are plated at low density in serum-free medium. At low density, the cells die within 2 days; they can be rescued by combinations of neurotrophic growth factors, but not by one alone ([19] and unpublished data). […] BDNF is a molecule that is also involved in promoting memory and neurogenesis and is reduced in the brain with age and in AD, as well as in other neurological disorders. BDNF has long been considered a drug target for AD [23]. […] A reduction in GSH is a common denominator of old age and essentially all chronic central nervous system (CNS) diseases. J147 and CAD-31 both effectively reduce oxidative stress, with EC50 of 6 nM and 20 nM, respectively. • CAD-31 also prevents loss of energy metabolism that leads to neuron cell death in an in vitro ischemia model. […] Intracellular Aβ toxicity was assayed in the human neuron cell line MC65 that conditionally expresses the C99 fragment of the amyloid precursor protein. When the cells are induced to make Aβ, the cells die within 4 days. Both J147 and CAD-31 block this toxicity at around 10 nM. Therefore, CAD-31 has a repertoire of neuroprotective activities similar but not identical to that of its parent compound, J147.

In a further test the test system is APPswe/PS1∆E9 mice. The arrangement: method as in PMID 22194796, PMID 23673233, PMID 27149904. Particulars: administered to 3-month-old APPswe/PS1∆E9 mice for 7 months; cited from earlier work.
A further test has as its system HT22. Put plainly: In vitro ischemia. The format is cell-based. The following applies: Mus musculus, HT-22, read-out: Half-maximal effective concentration, In vitro ischemia. Here is the method: as §1, §2
For a further test, the system named is rat hippocampal neurons. Put plainly: Aβ toxicity (extracellular). In kind it is cell-based. The following applies: Hippocampal neuron, read-out: Half-maximal effective concentration, Aβ toxicity (extracellular).
The next test deals with primary cortical neurons. Put plainly: Oxytosis. In kind it is cell-based. Particulars: Primary cortical neuron; read-out: Half-maximal effective concentration, Oxytosis. On the procedure: as §1, §2
In another test the target is Aβ1–42 (Homo sapiens, UniProt P05067). Put plainly: Thioflavin S Aβ1–42 aggregation assay. In kind it is biochemical. The following applies: data not shown.
The next test has as its system normal rodents. More on the design: method as in PMID 22194796, PMID 23673233, PMID 27149904. The following applies: cited from earlier work.
Test [4] concerns senescence-accelerated mouse-prone 8 (SAMP8) mice. More on the design: method as in PMID 26564964. Particulars: model of sporadic AD; cited from earlier work.
Test [5] relates to Primary embryonic day 18 cortical cells. Put plainly: Trophic factor withdrawal assay. The format is cell-based. Particulars: Cortical neurone; Cortical neuron; cell viability; read-out: Half-maximal effective concentration, Trophic factor withdrawal. Here is the method: as §1, §2

Chain of Aβ1–42 (P05067 672-713 limits assumed): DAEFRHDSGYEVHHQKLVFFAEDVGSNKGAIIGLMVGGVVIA

For the molecule `COc1cc(/C=C/c2cc(/C=C/c3ccc(O)c(OC)c3)n(-c3ccccc3)n2)ccc1O` [CNB-001], in test [1], the “accumulation of ubiquitinated, aggregated proteins in the brain” value is on record as “reduces the accumulation of ubiquitinated, aggregated proteins in the brain”.

As to `COc1cccc(/C=N/N(C(=O)C(F)(F)F)c2ccc(C)cc2C)c1` [J147, reference compound], the “memory deficits and AD pathology” value in [2] is “reverses memory deficits and some AD pathology”. Also, the EC50 was 74 nM in [3]; approximately 10 nM in the test on MC65; 14 nM in the test on HT22; 15 nM in the test on rat hippocampal neurons; 6 nM in the test with primary cortical neurons; 35 nM in [5]. Moreover, the “loss of synaptic proteins and cognitive decline” value was “prevents the loss of synaptic proteins and cognitive decline” in the test with APPswe/PS1∆E9 mice; “prevents the loss of synaptic proteins and cognitive decline” in test [4]. In addition, the “binding to and direct inhibition of Aβ1–42 aggregation” value on Aβ1–42 is “Neither J147 nor CAD-31 binds to and directly inhibits Aβ1–42 aggregation”. Also, in the test with normal rodents, the memory result is recorded as “facilitates memory in normal rodents”.

These data come from PMC5513091, “A novel Alzheimer’s disease drug candidate targeting inflammation and fatty acid metabolism” (Alzheimer's Research & Therapy, 2017).
